Assay results: US12421249B2, “Inhibitors of APOL1 and methods of using same” (Vertex Pharmaceuticals Incorporated, priority 2020, dated 2025)
Read-outs that look alike come from different tables or passages of the source.

Columns and labels:
[1] = target: T1, APOL1 G1 (Homo sapiens, UniProt O14791, I384M/S342G); test: Trypanosoma brucei brucei Lysis Assay Using APOL1 Recombinant Protein (AlamarBlue viability readout); format: cell-based; details: for IC50: IP50 = IC50 for cell proliferation, read-out: Trypanosome Assay IP50; for Emax: read-out: Trypanosome Assay Max Activity (%)
T1 sequence (O14791 28-398 S342G/I384M): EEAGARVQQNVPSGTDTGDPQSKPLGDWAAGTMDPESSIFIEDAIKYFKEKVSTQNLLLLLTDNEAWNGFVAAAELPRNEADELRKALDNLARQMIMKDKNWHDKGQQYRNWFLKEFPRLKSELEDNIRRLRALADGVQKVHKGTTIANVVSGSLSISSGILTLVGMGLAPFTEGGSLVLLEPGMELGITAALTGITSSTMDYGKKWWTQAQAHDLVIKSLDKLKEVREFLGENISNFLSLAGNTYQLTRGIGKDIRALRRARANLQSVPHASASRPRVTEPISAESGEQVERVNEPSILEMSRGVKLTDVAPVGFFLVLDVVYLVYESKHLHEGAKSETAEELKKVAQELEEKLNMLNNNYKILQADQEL
How it was run: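 Percent viability comes from AlamarBlue (resazurin→resorufin) fluorescence interpolated on a standard curve of known parasite numbers, with no-APOL1 wells as 100%. Parasites (Lister 427 bloodstream form, 120,000/well, serum-free assay medium) meet 0.05 μg/mL APOL1 (~EC90). Compounds span a 10-point series, 0.1% DMSO final.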

[2] = target: T2, APOL1 (Homo sapiens, UniProt O14791); test: Multi-Tox Assay (MultiTox-Fluor Multiplex Cytotoxicity Assay in tet-inducible APOL1 T-REx-HEK293 cells; Table 46 does not say which APOL1 variant G0/G1/G2); format: cell-based; details: APOL1 variant not given; for IC50: IP50 = IC50 for cell proliferation
T2 sequence (O14791 1-398 S342G/I384M): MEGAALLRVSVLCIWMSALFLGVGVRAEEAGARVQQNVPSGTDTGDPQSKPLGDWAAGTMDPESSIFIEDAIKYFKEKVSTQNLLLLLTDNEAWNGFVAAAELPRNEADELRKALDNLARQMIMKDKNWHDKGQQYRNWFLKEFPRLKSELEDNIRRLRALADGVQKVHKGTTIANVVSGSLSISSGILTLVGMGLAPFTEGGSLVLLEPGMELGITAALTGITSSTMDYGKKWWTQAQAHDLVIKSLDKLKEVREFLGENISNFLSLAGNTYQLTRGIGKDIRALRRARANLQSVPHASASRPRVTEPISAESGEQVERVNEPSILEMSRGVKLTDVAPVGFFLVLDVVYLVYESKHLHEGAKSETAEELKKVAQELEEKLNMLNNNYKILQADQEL

## C[C@H]1C[C@@]2(C[C@@H](c3ccc(O)nn3)N1)OCCc1cc(Cl)sc12 (stereo in doubt) [Compound 86]
[1]; Trypanosome Assay
  IC50: < 50 nM
  Emax: 112%
[2]
  IC50: < 50 nM

## Cc1nn(C)c2ncc(C3CC4(CC(C)N3)OCCc3cc(Cl)sc34)cc12 (stereo not shown) [Compound 42]
[1]; Trypanosome Assay
  IC50: < 50 nM
  Emax: 110%
[2]
  IC50: < 50 nM

## C[C@H]1C[C@@]2(C[C@@H](c3n[nH]c4ccccc34)N1)OCCc1cc(Cl)sc12 (racemic) [Compound 169]
[1]; Trypanosome Assay
  IC50: > 500 nM
  Emax: 61%
[2]
  IC50: > 500 nM

## C[C@H]1C[C@@]2(C[C@@H](c3cn(C)nn3)N1)OCCc1cc(Cl)sc12 [Compound 1, (2′S,6′S,7S)-2-chloro-2′-methyl-6′-(1-methyltriazol-4-yl)spiro[4,5-dihydrothieno[2,3-c]pyran-7,4′-piperidine]]
[1]; Trypanosome Assay
  IC50: < 50 nM
  Emax: 124%
[2]
  IC50: < 50 nM

## C[C@H]1C[C@@]2(C[C@@H](c3cn(C)nn3)N1)OC[C@@H](O)c1cc(C(F)(F)F)sc12 [Compound 181, (2S,4S,4′S,6S)-2-methyl-6-(1-methyl-1H-1,2,3-triazol-4-yl)-2′-(trifluoromethyl)-4′,5′-dihydrospiro[piperidine-4,7′-thieno[2,3-c]pyran]-4′-ol]
[1]; Trypanosome Assay
  IC50: < 50 nM
  Emax: 102%
[2]
  IC50: < 50 nM

## Cc1cc2c(s1)C1(C[C@@H](c3cn(C)nn3)N[C@@H](C)C1)OCC2 (stereo in doubt) [Compound 3]
[1]; Trypanosome Assay
  IC50: < 50 nM
  Emax: 107%
[2]
  IC50: < 50 nM

## CC(C)C1CC2(CC(c3cn(C)nn3)N1)OCCc1cc(C(F)(F)F)sc12 (stereo not shown) [Compound 191]
[1]; Trypanosome Assay
  IC50: 50 to 500 nM
  Emax: 108%
[2]
  IC50: 50 to 500 nM

## C[C@H]1C[C@@]2(C[C@@H](c3ccc(O)nc3)N1)OCCc1cc(Cl)sc12 (racemic) [Compound 68]
[1]; Trypanosome Assay
  IC50: < 50 nM
  Emax: 106%
[2]
  IC50: < 50 nM

## CC1CC2(CC(c3cnn(CCS(C)(=O)=O)c3)N1)OCCc1cc(Cl)sc12 (stereo not shown) [Compound 46]
[1]; Trypanosome Assay
  IC50: < 50 nM
  Emax: 108%
[2]
  Multi-Tox Assay Max Activity (%): 99.0%
  IC50: < 50 nM

## CC1CC2(CC(C)N1)OCCc1cc(Cl)sc12 (mixture of isomers) [Compound 194, 2-chloro-2′,6′-dimethyl-spiro[4,5-dihydrothieno[2,3-c]pyran-7,4′-piperidine]]
[1]; Trypanosome Assay
  IC50: 50 to 500 nM
[1]
  Emax: 117%
[2]
  IC50: 50 to 500 nM

## COc1cccc([C@@H]2C[C@]3(C[C@H](C)N2)OCCc2cc(Cl)sc23)c1O (racemic) [Compound 166]
[1]; Trypanosome Assay
  IC50: > 500 nM
  Emax: 57.5%
[2]
  IC50: > 500 nM

## C[C@@H]1CC2(C[C@H](C)N1)OCCc1cc(Br)sc12 (single isomer, unassigned) [Compound 197]
[1]; Trypanosome Assay
  IC50: 50 to 500 nM
[1]
  Emax: 106%
[2]
  IC50: 50 to 500 nM

## CCC1CC2(CC(c3cn(C)nn3)N1)OCCc1cc(C(F)(F)F)sc12 (stereo not shown) [Compound 187, 2′-ethyl-6′-(1-methyltriazol-4-yl)-2-(trifluoromethyl)spiro[4,5-dihydrothieno[2,3-c]pyran-7,4′-piperidine]]
[1]; Trypanosome Assay
  IC50: 50 to 500 nM
  Emax: 106%
[2]
  IC90: < 50 nM
  Multi-Tox Assay Max Activity (%): 100.0%
  IC50: < 50 nM

## CNc1ncc([C@@H]2C[C@]3(C[C@H](C)N2)OCCc2cc(Cl)sc23)cn1 (racemic) [Compound 60]
[1]; Trypanosome Assay
  IC50: < 50 nM
  Emax: 102%
[2]
  Multi-Tox Assay Max Activity (%): 99.7%
  IC50: < 50 nM

## C[C@H]1C[C@@]2(C[C@@H](c3ccc[nH]c3=O)N1)OCCc1cc(Cl)sc12 (racemic) [Compound 121]
[1]; Trypanosome Assay
  IC50: 50 to 500 nM
  Emax: 97.5%
[2]
  Multi-Tox Assay Max Activity (%): 99.0%
  IC50: < 50 nM

## C[C@H]1C[C@@]2(C[C@@H](c3cocn3)N1)OCCc1cc(Cl)sc12 (racemic) [Compound 79]
[1]; Trypanosome Assay
  IC50: < 50 nM
  Emax: 97.5%
[2]
  IC50: < 50 nM

## C[C@H]1CC2(CC(c3cn(C)cn3)N1)OCC(O)c1cc(Cl)sc12 (stereo in doubt) [Compound 178]
[1]; Trypanosome Assay
  IC50: < 50 nM
  Emax: 101%
[2]
  IC50: < 50 nM

## COc1ccc([C@@H]2C[C@]3(C[C@H](C)N2)OCCc2cc(Cl)sc23)c(F)c1 (racemic) [Compound 44]
[1]; Trypanosome Assay
  IC50: < 50 nM
  Emax: 106%
[2]
  Multi-Tox Assay Max Activity (%): 99.5%
  IC50: < 50 nM

## Cc1ccc([C@@H]2C[C@]3(C[C@H](C)N2)OCCc2cc(Cl)sc23)nc1 (racemic) [Compound 77]
[1]; Trypanosome Assay
  IC50: < 50 nM
  Emax: 110%
[2]
  IC50: < 50 nM

## CCc1cc2c(s1)CCO[C@@]21C[C@@H](c2cnn(CCS(C)(=O)=O)c2)N[C@@H](C)C1 (stereo in doubt) [Compound 5]
[1]; Trypanosome Assay
  IC50: 50 to 500 nM
  Emax: 111%
[2]
  Multi-Tox Assay Max Activity (%): 100.0%
  IC50: 50 to 500 nM

## COc1ccc(C2CC3(CC(C)N2)OCCc2cc(Cl)sc23)nn1 (mixture of isomers) [Compound 76]
[1]; Trypanosome Assay
  IC50: < 50 nM
  Emax: 106%
[2]
  IC50: < 50 nM

## Cc1cc([C@@H]2C[C@]3(C[C@H](C)N2)OCCc2cc(Cl)sc23)[nH]n1 (racemic) [Compound 73]
[1]; Trypanosome Assay
  IC50: < 50 nM
  Emax: 110%
[2]
  IC50: < 50 nM

## C[C@H]1C[C@@]2(C[C@@H](c3cnc(C(N)=O)cn3)N1)OCCc1cc(Cl)sc12 (racemic) [Compound 63]
[1]; Trypanosome Assay
  IC50: < 50 nM
  Emax: 104%
[2]
  IC50: < 50 nM

## C[C@H]1C[C@@]2(C[C@@H](c3ccc(C(=O)NC4CC4)cc3)N1)OCCc1cc(Cl)sc12 (racemic) [Compound 71]
[1]; Trypanosome Assay
  IC50: < 50 nM
  Emax: 104%
[2]
  IC50: < 50 nM

## Cc1ncoc1[C@@H]1C[C@]2(C[C@H](C)N1)OCCc1cc(Cl)sc12 (racemic) [Compound 157]
[1]; Trypanosome Assay
  IC50: > 500 nM
  Emax: 95%
[2]
  Multi-Tox Assay Max Activity (%): 96.3%
  IC50: 50 to 500 nM

## C[C@H]1C[C@@]2(C[C@@H](c3cccc(C(N)=O)c3)N1)OCCc1cc(Cl)sc12 (racemic) [Compound 109]
[1]; Trypanosome Assay
  IC50: 50 to 500 nM
  Emax: 100%
[2]
  Multi-Tox Assay Max Activity (%): 100.0%
  IC50: < 50 nM

## CC(=O)Nc1ccc(C2CC3(CC(C)N2)OCCc2cc(Cl)sc23)cn1 (stereo not shown) [Compound 37]
[1]; Trypanosome Assay
  IC50: < 50 nM
  Emax: 114%
[2]
  IC50: < 50 nM

## C[C@H]1C[C@@]2(C[C@@H](c3cccc(S(N)(=O)=O)c3)N1)OCCc1cc(Cl)sc12 (racemic) [Compound 147]
[1]; Trypanosome Assay
  IC50: 50 to 500 nM
  Emax: 93.5%
[2]
  IC50: 50 to 500 nM

## COCC1CC2(CC(c3cn(C)nn3)N1)OCCc1cc(C(F)(F)F)sc12 (stereo not shown) [Compound 193]
[1]; Trypanosome Assay
  IC50: 50 to 500 nM
  Emax: 100%
[2]
  IC50: 50 to 500 nM

## C[C@H]1C[C@@]2(C[C@@H](c3cnc(N4CCN(C)CC4)nc3)N1)OCCc1cc(Cl)sc12 (racemic) [Compound 129]
[1]; Trypanosome Assay
  IC50: < 50 nM
  Emax: 88%
[2]
  Multi-Tox Assay Max Activity (%): 100.0%
  IC50: 50 to 500 nM

## COc1ccccc1-c1ncc([C@@H]2C[C@]3(C[C@H](C)N2)OCCc2cc(Cl)sc23)cn1 (racemic) [Compound 105]
[1]; Trypanosome Assay
  IC50: < 50 nM
  Emax: 72%
[2]
  Multi-Tox Assay Max Activity (%): 99.3%
  IC50: < 50 nM

## C[C@H]1C[C@@]2(C[C@@H](c3ccc(=O)n(C)c3)N1)OCCc1cc(Cl)sc12 (racemic) [Compound 80]
[1]; Trypanosome Assay
  IC50: < 50 nM
[2]
  IC50: < 50 nM

## CCc1cc2c(s1)C(C)COC21C[C@@H](c2cn(C)nn2)N[C@@H](C)C1 (stereo in doubt) [Compound 11]
[1]; Trypanosome Assay
  Trypanosome Assay Max Activity (%): 101.5%
  IC50: < 50 nM
[2]
  IC90: < 50 nM
  Multi-Tox Assay Max Activity (%): 99.3%
  IC50: < 50 nM

## C[C@H]1CC2(CC(c3cnn(C)c3)N1)OCC(O)c1cc(Cl)sc12 (single isomer, unassigned) [Compound 175]
[1]; Trypanosome Assay
  IC50: < 50 nM
  Emax: 106%
[2]
  IC90: < 50 nM
  Multi-Tox Assay Max Activity (%): 100.0%
  IC50: < 50 nM

## CC1CC2(CC(c3cn(C)cn3)N1)OCCc1cc(Cl)sc12 (racemic) [Compound 22]
[1]; Trypanosome Assay
  IC50: < 50 nM
  Emax: 129%
[2]
  IC90: < 50 nM
  Multi-Tox Assay Max Activity (%): 99.7%
  IC50: < 50 nM

## C[C@H]1C[C@@]2(C[C@@H](c3ccc(C(N)=O)cc3)N1)OCCc1cc(Cl)sc12 (racemic) [Compound 47]
[1]; Trypanosome Assay
  IC50: < 50 nM
[2]
  IC50: < 50 nM

## CCOc1ccc([C@@H]2C[C@]3(C[C@H](C)N2)OCCc2cc(Cl)sc23)cc1O (racemic) [Compound 107]
[1]; Trypanosome Assay
  IC50: < 50 nM
  Emax: 92.5%
[2]
  Multi-Tox Assay Max Activity (%): 99.7%
  IC50: < 50 nM

## CC1CC2(CC(C3CCC3)N1)OCCc1cc(Cl)sc12 (mixture of isomers) [Compound 218]
[1]; Trypanosome Assay
  IC50: 50 to 500 nM
  Emax: 111%
[2]
  IC50: < 50 nM
